Assay results taken from patent publication US20220409727A1, “Metal Complexes Bearing Bisstyryl-Bipyridine Ligand and Their Use as Photosensitizer Agent in One and Two-Photon Photodynamic Therapy” (Paris Sciences et Lettres, priority 2019, published 2022).
Like-named read-outs stand apart in the source and are kept apart here.

Experiments:
[1] = Singlet oxygen measurement, direct evaluation (1O2 luminescence at 1270 nm); assay type: physicochemical
Experimental: The samples were prepared in an air saturated CH3CN or D2O solution with an absorbance of 0.2 at 450 nm. This solution was irradiated in fluorescence quartz cuvettes (width 1 cm) using a mounted M450LP1 LED (Thorlabs) whose irradiation, centered at 450 nm, has been focused with aspheric condenser lenses. The intensity of the irradiation has been varied using a T-Cube LED Driver (Thorlabs) and measured with an optical power and energy meter. The emission signal was focused and collected at right angle to the excitation pathway and directed to a Princeton Instruments Acton SP-2300i monochromator. A longpass glass filter was placed in front of the monochromator entrance slit to cut off light at wavelengths shorter than 850 nm. As a detector an EO-817L IR-sensitive liquid nitrogen cooled germanium diode detector (North Coast Scientific Corp.) has been used. The singlet oxygen luminesce at 1270 nm was measured by recording spectra from 1100 to 1400 nm. For the data analysis, the singlet oxygen luminescence peaks at different irradiation intensities were integrated. The resulting areas were plotted against the percentage of the irradiation intensity and the slope of the linear regression calculated. The absorbance of the sample was corrected with an absorbance correction factor. As reference for the measurement Rose Bengal (Φ=76%) (Kochevar, I. E. and Redmond, R. W., 2000) was used and the singlet oxygen quantum yields were calculated using the following formula:
Φsample=Φreference*(Ssample/Sreference)*(Ireference/Isample)
Φ=singlet oxygen quantum yield, S=slope of the linear regression of the plot of the areas of the singlet oxygen luminescence peaks against the irradiation intensity, I=absorbance correction factor, […] of the irradiation source, A=absorbance of the sample at irradiation wavelength.

[2] = Singlet oxygen measurement, indirect evaluation (RNO absorbance); assay type: physicochemical; details: indirect
Experimental: For the measurement in CH3CN: The samples were prepared in an air-saturated CH3CN solution containing the complex with an absorbance of 0.2 at the irradiation wavelength, N,N-dimethyl-4-nitrosoaniline aniline (RNO, 24 μM) and imidazole (12 mM). For the measurement in PBS buffer: The samples were prepared in an air-saturated PBS solution containing the complex with an absorbance of 0.1 at the irradiation wavelength, N,N-dimethyl-4-nitrosoaniline aniline (RNO, 20 μM) and histidine (10 mM). The samples were irradiated on 96 well plates with an Atlas Photonics LUMOS BIO irradiator for different times. The absorbance of the samples was measured during these time intervals with a SpectraMax M2 Microplate Reader (Molecular Devices). The difference in absorbance (A0−A) at 420 nm for the CH3CN solution or at 440 nm a PBS buffer solution was calculated and plotted against the irradiation times. From the plot the slope of the linear regression was calculated as well as the absorbance correction factor determined. The singlet oxygen quantum yields were calculated using the same formulas as used for the direct evaluation.

[3] = tested on: mouse colon carcinoma (CT-26) cells; test: (Photo-)cytotoxicity on 2D cell monolayers, resazurin assay, CT-26; details: for PI (480 nm): CT-26, dark vs 480 nm (10 min, 3.1 J/cm^2); for PI (540 nm): CT-26, dark vs 540 nm (40 min, 9.5 J/cm^2); for IC50: compounds 1-3 as chloride salts
Experimental: The human glioblastoma astrocytoma (U373) cell line was cultured in MEM medium supplemented with 10% FBS, 1% NEAA (non-essential amino-acids) and 1% penicillin/streptomycin. […] The human retinal epithelial cells (RPE-1, non-cancerous cells immortalized with hTERT) were cultured in DMEM-F12 medium supplemented with 10% FBS and 1% penicillin/streptomycin. All cell lines were obtained from the American Type Culture Collection (ATCC) and cultured at 37° C. and 5% CO2. Before an experiment, the cells were passaged three times.
The cytotoxicity of the compounds was assessed by measuring cell viability using a fluorometric resazurin assay. The cultivated cells were seeded in triplicates in 96 well plates with a density of 4000 cells per well in 100 μL of media. After 24 h, the medium was removed and the cells were treated with increasing concentrations of the compound diluted in cell media achieving a total volume of 200 μL. The cells were incubated with the compound for 4 h. After this time, the media was removed and replaced with 200 μL of fresh medium. For the phototoxicity studies, the cells were exposed to light with an Atlas Photonics LUMOS BIO irradiator. Each well was constantly illuminated with either a 480 nm or 540 nm irradiation. During this time, the temperature was maintained constantly at 37° C. The cells were grown in the incubator for additional 44 h. For the determination of the dark cytotoxicity, the cells were not irradiated and after the medium exchange directly incubated for 44 h. After this time, the medium was replaced with fresh medium containing resazurin with a final concentration of 0.2 mg/mL. After 4 h incubation, the amount of the fluorescent product resorufin was determined upon excitation at 540 nm and measurement its emission at 590 nm using a SpectraMax M2 Microplate Reader (Molecular Devices).
The obtained data was analyzed with the GraphPad Prism software.

[4] = tested on: human glioblastoma astrocytoma (U373) cells; test: (Photo-)cytotoxicity on 2D cell monolayers, resazurin assay, U373; details: for PI (480 nm): U373, dark vs 480 nm (10 min, 3.1 J/cm^2); for PI (540 nm): U373, dark vs 540 nm (40 min, 9.5 J/cm^2); for IC50: compounds 1-3 as chloride salts
HeLa MCTS = test: (Photo-)cytotoxicity on 3D multicellular tumor spheroids (ATP, CellTiter-Glo 3D); assay type: cell-based, human; details: for PI (1-Photon): dark vs 1-Photon irradiation (500 nm, 10 J/cm^2); for PI (2-Photon): dark vs 2-Photon irradiation (800 nm, 10 J/cm^2)
Experimental: autoclave. The hot emulsion was transferred into wells (50 μL per well) of a 96 cell culture well plate. The plates were exposed for 3 h to UV irradiation to ensure the sterility and allow the agarose solution to cool down. After this time, the agarose was overlayed with a HeLa cell suspension at a density of 3000 cells per well in 150 μL of media. The MCTS were cultivated and maintained at 37° C. in a cell culture incubator at 37° C. with 5% CO2 atmosphere. The culture media was replaced every two days. Within two-three days MCTs were formed from the cell suspension. The formation as well as integrity, diameter and volume of the MCTs was monitored by an Axio Observer Z1 (Carl Zeiss) phase contrast microscope. The volume was calculated using the following formula: V=4/3πr^3. The luminescence images along the z-axis were captured by a one-(λex=458 nm, λem=600-750 nm) or two-photon (λex=800 nm, λem=600-750 nm) excitation in the z-stack mode with a an LSM 880 (Carl Zeiss) laser scanning confocal microscope equipped with Argon and a Coherent Chameleon 2-Photon laser and a GaAsP detector.
The cytotoxicity of the compounds in 3D multicellular tumor spheroids (MCTS) was assessed by measurement of the ATP concentration. MCTS were treated with increasing concentrations of the compound (2% DMSO, v %) by replacing 50% of the media with drug supplemented media and incubation for 12 h. After this time, the MCTS were divided in three identical groups. The first group was strictly kept in the dark. The second group was exposed to a one-photon irradiation (500 nm, 10 J/cm^2) using a LED and the third group was exposed to a two-photon irradiation (800 nm, 10 J/cm^2) with a section interval of 5 μm using a LSM 880 (Carl Zeiss, Germany) laser scanning confocal microscope equipped with a Coherent Chameleon 2-Photon laser. After the irradiation, all groups were incubated additional 48 h. The ATP concertation was measured using a CellTiter-Glo 3D Cell Viability kit (Promega) by measuring the generated chemiluminescence with an infinite M200 PRO (Tecan) plate reader.

[5] = tested on: human cervical carcinoma (HeLa) cells; test: (Photo-)cytotoxicity on 2D cell monolayers, resazurin assay, HeLa; assay type: cell-based; details: for PI (480 nm): dark vs 480 nm (10 min, 3.1 J/cm^2); for PI (540 nm): dark vs 540 nm (40 min, 9.5 J/cm^2)
Description: Before an experiment, the cells were passaged three times.

[6] = read-out: IC50 540 nm (40 min, 9.5 J/cm^2), CT-26, irradiation 540 nm (40 min, 9.5 J/cm^2)
[7] = read-out: IC50 dark, CT-26, dark, 4 h incubation
[8] = read-out: IC50 480 nm (10 min, 3.1 J/cm^2), U373, irradiation 480 nm (10 min, 3.1 J/cm^2)
[9] = read-out: IC50 dark, U373, dark, 4 h incubation
[10] = 1-Photon irradiation (500 nm, 10 J/cm^2), read-out: IC50 1-Photon irradiation (500 nm, 10 J/cm^2)
[11] = 2-Photon irradiation (800 nm, 10 J/cm^2, section interval of 5 μm), read-out: IC50 2-Photon irradiation (800 nm, 10 J/cm^2)
[12] = dark, 12 h incubation, read-out: IC50 dark
[13] = dark, 4 h incubation, compounds 1-3 as chloride salts, read-out: IC50 dark
[14] = read-out: IC50 480 nm (10 min, 3.1 J/cm^2), irradiation 480 nm (10 min, 3.1 J/cm^2), compounds 1-3 as chloride salts
[15] = read-out: IC50 540 nm (40 min, 9.5 J/cm^2), irradiation 540 nm (40 min, 9.5 J/cm^2), compounds 1-3 as chloride salts

For `CN(C)c1ccc(/C=C/c2ccnc(-c3cc(/C=C/c4ccc(N(C)C)cc4)ccn3)c2)cc1.F[P-](F)(F)(F)(F)F.F[P-](F)(F)(F)(F)F.[Ru+2].c1cnc2c(c1)ccc1cccnc12.c1cnc2c(c1)ccc1cccnc12` [Compound 8, [Ru(phen)2((E,E′)-4,4′-Bis[p-(N,N-dimethylamino)styryl]-2,2′-bipyridine)][PF6]2], the “Singlet oxygen quantum yield, direct 450 nm CH3CN” value [1] was 59%, the “Singlet oxygen quantum yield, indirect 450 nm CH3CN” value [2] was 62% and the “Singlet oxygen quantum yield, indirect 450 nm PBS” value [2] was 3%. The “Singlet oxygen quantum yield, indirect 540 nm CH3CN” value [2] was 57%, the “Singlet oxygen quantum yield, indirect 540 nm PBS” value [2] was 2% and the “PI (480 nm)” value [3] was over 12.2. The “PI (540 nm)” value [3] was over 12.8, the IC50 [3, 6] was 7.8 ± 0.9 µM and the IC50 [3, 7] was over 100 µM. The “PI (480 nm)” value [4] was over 8.5, the “PI (540 nm)” value [4] was over 7.5 and the IC50 [4, 8] was 11.7 ± 1.5 µM. It also gave an IC50 [4, 9] of over 100 µM, an IC50 (HeLa MCTS; [10]) of 32.6 ± 2.5 µM and an IC50 (HeLa MCTS; [11]) of 27.8 ± 3.1 µM. For the same compound, the “PI (1-Photon)” value (HeLa MCTS) was over 9.2, the “PI (2-Photon)” value (HeLa MCTS) was over 10.8 and the IC50 (HeLa MCTS; [12]) was over 300 µM. The “PI (480 nm)” value [5] was over 7.9, the “PI (540 nm)” value [5] was over 8.8 and the IC50 [5, 13] was over 100 µM. The IC50 [5, 14] was 12.6 ± 1.3 µM and the IC50 [5, 15] was 11.4 ± 1.5 µM.
For `CN(C)c1ccc(/C=C/c2ccnc(-c3cc(/C=C/c4ccc(N(C)C)cc4)ccn3)c2)cc1.F[P-](F)(F)(F)(F)F.F[P-](F)(F)(F)(F)F.[Ru+2].c1ccc(-c2ccccn2)nc1.c1ccc(-c2ccccn2)nc1` [Compound 6, [Ru(bipy)2((E,E′)-4,4′-Bis[p-(N,N-dimethylamino)styryl]-2,2′-bipyridine)][PF6]2], the “Singlet oxygen quantum yield, direct 450 nm CH3CN” value [1] was 46%, the “Singlet oxygen quantum yield, indirect 450 nm CH3CN” value [2] was 53% and the “Singlet oxygen quantum yield, indirect 450 nm PBS” value [2] was 2%. For the same compound, the “Singlet oxygen quantum yield, indirect 540 nm CH3CN” value [2] was 38%, the “Singlet oxygen quantum yield, indirect 540 nm PBS” value [2] was 2% and the “PI (480 nm)” value [3] was over 41.7. The “PI (540 nm)” value [3] was over 32.3, the IC50 [3, 6] was 3.1 ± 0.3 µM and the IC50 [3, 7] was over 100 µM. The “PI (480 nm)” value [4] was over 12.0, the “PI (540 nm)” value [4] was over 9.3 and the IC50 [4, 8] was 8.3 ± 1.1 µM. It also gave an IC50 [4, 9] of over 100 µM, an IC50 (HeLa MCTS; [10]) of 33.8 ± 3.4 µM and an IC50 (HeLa MCTS; [11]) of 26.5 ± 2.9 µM. The “PI (1-Photon)” value (HeLa MCTS) was over 8.9, the “PI (2-Photon)” value (HeLa MCTS) was over 11.3 and the IC50 (HeLa MCTS; [12]) was over 300 µM. For the same compound, the “PI (480 nm)” value [5] was over 18.9, the “PI (540 nm)” value [5] was over 17.2 and the IC50 [5, 13] was over 100 µM. For the same compound, the IC50 [5, 14] was 5.3 ± 0.6 µM and the IC50 [5, 15] was 5.8 ± 0.9 µM.
In the case of `COc1ccc(/C=C/c2ccnc(-c3cc(/C=C/c4ccc(OC)cc4)ccn3)c2)cc1.COc1ccc(/C=C/c2ccnc(-c3cc(/C=C/c4ccc(OC)cc4)ccn3)c2)cc1.F[P-](F)(F)(F)(F)F.F[P-](F)(F)(F)(F)F.[Ru+2].c1ccc(-c2ccccn2)nc1` [Compound 5, [Ru(bipy)((E,E′)-4,4′-Bis[p-methoxystyryl]-2,2′-bipyridine)2][PF6]2], the “Singlet oxygen quantum yield, direct 450 nm CH3CN” value [1] is reported as 54%, the “Singlet oxygen quantum yield, indirect 450 nm CH3CN” value [2] is reported as 51% and the “Singlet oxygen quantum yield, indirect 450 nm PBS” value [2] is reported as 8%. The “Singlet oxygen quantum yield, indirect 540 nm CH3CN” value [2] was 46%, the “Singlet oxygen quantum yield, indirect 540 nm PBS” value [2] was 6% and the “PI (480 nm)” value [3] was over 19.6. The “PI (540 nm)” value [3] was over 16.1, the IC50 [3, 6] was 6.2 ± 1 µM and the IC50 [3, 7] was over 100 µM. The “PI (480 nm)” value [4] was over 6.5, the “PI (540 nm)” value [4] was over 5.6 and the IC50 [4, 8] was 15.3 ± 2.2 µM. It also gave an IC50 [4, 9] of over 100 µM, an IC50 (HeLa MCTS; [10]) of 19.3 ± 2.7 µM and an IC50 (HeLa MCTS; [11]) of 13.4 ± 3.9 µM. The “PI (1-Photon)” value (HeLa MCTS) was over 5.2, the “PI (2-Photon)” value (HeLa MCTS) was over 7.5 and the IC50 (HeLa MCTS; [12]) was over 100 µM. The “PI (480 nm)” value [5] was over 16.7, the “PI (540 nm)” value [5] was over 12.7 and the IC50 [5, 13] was over 100 µM. For the same compound, the IC50 [5, 14] was 6.4 ± 1.7 µM and the IC50 [5, 15] was 7.9 ± 1.3 µM.
